Assay results taken from US6613323B2 (priority 2000, dated 2003).

Test system: Magnaporthe grisea
Type: cell-based

With `OCCCCCCCCCCCCCCCCO` [1,16-hexadecanediol] the “effectiveness in inducing appressorium formation compared with cAMP” value (in the presence of recombinant PepEST) was “much more effective than cAMP” and the “reversal of the inhibition of appressorium formation by the recombinant protein” value (spores treated in the presence of recombinant PepEST, cAMP 10 mM, 1,16-hexadecanediol 0.01 mM) was “reversible”.
